Assay results taken from patent US7563864B2, “Prolyl endopeptidase mediated destruction of T cell epitopes in whole gluten” (Celiac Sprue Research Foundation, priority 2004, dated 2009).

Columns and labels:
[1] = Chymotrypsin activity assay; type: biochemical; settings: standard chromogenic assay; pH 7.8, 25° C.
Experimental: Chymotrypsin: 750 μL 80 mM Tris-HCl, 100 mM CaCl2, pH 7.8 and 700 μL 1.07 mM BTEE (in Water/MeOH 1:1) were mixed and incubated at room temperature for 10′. 5 μL Chymotrypsin (1 mg/ml) were added and the absorption at 256 nm was recorded for 2′, every 10″. One unit hydrolyzes 1 μmol of BTEE per min at pH 7.8 and 25° C. Extinction coefficient 0.964 cm^2/μmol at 256 nm. 1 BTEE unit=29.55 USP units.

Elastase activity assay = type: biochemical; settings: standard chromogenic assay; pH 8.0, 25° C.
Experimental: Elastase: 935 μL 0.1 M Tris (pH 8.0) and 65 μL of Succinyl-Ala3-p-Nitro anilide (4.4 mM in 0.1 M Tris, pH 8.0) were mixed and incubated at room temperature for 10′. 5 μL Elastase (0.2 mg/ml) were added and the absorption at 410 nm was recorded for 2′, every 10″. One unit hydrolyzes 1 μmol of Succinyl-Ala3-p-Nitro anilide per min at pH 8.0 and 25° C. Extinction coefficient 8.8 cm^2/μmol at 410 nm. […].

[2] = system: denatured hemoglobin substrate; assay: Pepsin activity assay; type: biochemical; settings: standard chromogenic assay; 37° C.
Experimental: Activity assays—Pepsin: 300 μL 2.5% Hemoglobin and 75 μL 0.3 M HCl were mixed and incubated for 10′ at 37° C., then added to 75 μL pepsin solution (0.1 mg/ml in 0.01 M HCl, pH=2.0). The samples were incubated for 0′, 10′ and 20′ at 37° C. (3 samples), and the reaction was stopped by addition of 750 μL 5% Trichloroacetic acid (TCA), and incubated 5′ at 37° C. For the 0′ samples, the TCA was added before the hemoglobin. Samples were centrifuged for 10′ at 13400×g. The absorption was recorded at 280 nm. One unit renders TCA soluble absorption of 0.001 at 280 nm per min at 37° C. from a denatured hemoglobin substrate.

[3] = system: intestinal T cell line 491.1.3; assay: T cell proliferation assay, polyclonal T cell line 491.1.3; type: cell-based, human; settings: DQ2+ APC, 5 μM TG2-treated peptide, 3H thymidine incorporation
Source text: (§1) T cell assays—The generation of polyclonal gluten-specific T cell lines derived from ex vivo gluten challenged small intestinal biopsy specimens of adult Celiac Sprue patients have been described elsewhere. For this study 14 different intestinal T cell lines derived from 13 DQ2+celiac patients were selected based on two basic criteria; effective recognition of TG2-treated digests of gluten and significant responses to at least two different gluten epitopes (Table 2). The generation of intestinal T cell clones and the epitope specificity of these clones, except TCC 387.3, has been described elsewhere (10). The TCC 387.3 recognizes a TG2-dependent epitope, defined as γ-VI that is contained within residues 62-72 (PQQPFPQQPQQ) of recombinant γ-5 gliadin. The freeze-dried, proteolyzed gluten samples were dissolved in PBS with 2 mM CaCl2 and treated with 150 μg/ml human recombinant TG2 (14) or, in some experiments 200 μg/ml guinea pig transglutaminase (Sigma T-5398), for 2 hours at 37° C. The TG2-treated samples were incubated overnight in triplicates on U-bottomed 96 well plates with 75 000 cells per well of DQ2 homozygous, irradiated (75 Gy) EBV-transformed B-lymphoblastoid cell lines in a volume of 100 μl 15% pooled, inactivated human serum and RPMI1640. After the incubation 50 μl of freshly thawed T cells (1×10^6 cells/ml) were added to each well. The proliferation in the wells was evaluated by ^3H thymidine incorporation from 48-72 hours after the addition of the T cells.

[4] = system: intestinal T cell line 496.1.2; assay: T cell proliferation assay, polyclonal T cell line 496.1.2; type: cell-based, human; set-up: key: −: no response; Stimulatory index (SI; T + APC + TG2-treated peptide divided by T + APC) of 3-10; ++: SI above 10; settings: DQ2+ APC, 5 μM TG2-treated peptide, 3H thymidine incorporation
Source text: as §1

[5] = system: intestinal T cell line 437.1.1; assay: T cell proliferation assay, polyclonal T cell line 437.1.1; type: cell-based, human; set-up: key: −: no response; Stimulatory index (SI; T + APC + TG2-treated peptide divided by T + APC) of 3-10; ++: SI above 10; settings: DQ2+ APC, 5 μM TG2-treated peptide, 3H thymidine incorporation
Source text: as §1

[6] = system: intestinal T cell line 502.1.2; assay: T cell proliferation assay, polyclonal T cell line 502.1.2; type: cell-based, human; set-up: key: −: no response; Stimulatory index (SI; T + APC + TG2-treated peptide divided by T + APC) of 3-10; ++: SI above 10; settings: DQ2+ APC, 5 μM TG2-treated peptide, 3H thymidine incorporation
Source text: as §1

[7] = system: intestinal T cell line 494.1.1; assay: T cell proliferation assay, polyclonal T cell line 494.1.1; type: cell-based, human; set-up: key: −: no response; Stimulatory index (SI; T + APC + TG2-treated peptide divided by T + APC) of 3-10; ++: SI above 10; settings: DQ2+ APC, 5 μM TG2-treated peptide, 3H thymidine incorporation
Source text: as §1

[8] = system: intestinal T cell line 422.4.2; assay: T cell proliferation assay, polyclonal T cell line 422.4.2; type: cell-based, human; set-up: key: −: no response; Stimulatory index (SI; T + APC + TG2-treated peptide divided by T + APC) of 3-10; ++: SI above 10; settings: DQ2+ APC, 5 μM TG2-treated peptide, 3H thymidine incorporation
Source text: as §1

[9] = system: intestinal T cell line 421.1.4; assay: T cell proliferation assay, polyclonal T cell line 421.1.4; type: cell-based, human; set-up: key: −: no response; Stimulatory index (SI; T + APC + TG2-treated peptide divided by T + APC) of 3-10; ++: SI above 10; settings: DQ2+ APC, 5 μM TG2-treated peptide, 3H thymidine incorporation
Source text: as §1

[10] = system: intestinal T cell line 482.1.4; assay: T cell proliferation assay, polyclonal T cell line 482.1.4; type: cell-based, human; set-up: key: −: no response; Stimulatory index (SI; T + APC + TG2-treated peptide divided by T + APC) of 3-10; ++: SI above 10; settings: DQ2+ APC, 5 μM TG2-treated peptide, 3H thymidine incorporation
Source text: as §1

[11] = system: intestinal T cell line 461.1.4; assay: T cell proliferation assay, polyclonal T cell line 461.1.4; type: cell-based, human; set-up: key: −: no response; Stimulatory index (SI; T + APC + TG2-treated peptide divided by T + APC) of 3-10; ++: SI above 10; settings: DQ2+ APC, 5 μM TG2-treated peptide, 3H thymidine incorporation
Source text: as §1

[12] = system: intestinal T cell line 437.1.3; assay: T cell proliferation assay, polyclonal T cell line 437.1.3; type: cell-based, human; set-up: key: −: no response; Stimulatory index (SI; T + APC + TG2-treated peptide divided by T + APC) of 3-10; ++: SI above 10; settings: DQ2+ APC, 5 μM TG2-treated peptide, 3H thymidine incorporation
Source text: as §1

[13] = system: intestinal T cell line 451.1.1; assay: T cell proliferation assay, polyclonal T cell line 451.1.1; type: cell-based, human; set-up: key: −: no response; Stimulatory index (SI; T + APC + TG2-treated peptide divided by T + APC) of 3-10; ++: SI above 10; settings: DQ2+ APC, 5 μM TG2-treated peptide, 3H thymidine incorporation
Source text: as §1

[14] = system: intestinal T cell line 488.3.1; assay: T cell proliferation assay, polyclonal T cell line 488.3.1; type: cell-based, human; set-up: key: −: no response; Stimulatory index (SI; T + APC + TG2-treated peptide divided by T + APC) of 3-10; ++: SI above 10; settings: DQ2+ APC, 5 μM TG2-treated peptide, 3H thymidine incorporation
Source text: as §1

[15] = system: intestinal T cell line 446.1.3; assay: T cell proliferation assay, polyclonal T cell line 446.1.3; type: cell-based, human; settings: DQ2+ APC, 5 μM TG2-treated peptide, 3H thymidine incorporation
Source text: as §1

[16] = system: intestinal T cell line 432.2.1; assay: T cell proliferation assay, polyclonal T cell line 432.2.1; type: cell-based, human; set-up: key: −: no response; Stimulatory index (SI; T + APC + TG2-treated peptide divided by T + APC) of 3-10; ++: SI above 10; settings: DQ2+ APC, 5 μM TG2-treated peptide, 3H thymidine incorporation
Source text: as §1

Trypsin activity assay = type: biochemical; settings: standard chromogenic assay; pH 8.2, 25° C.
Experimental: Trypsin: 870 μL 46 mM Tris-HCl, 11.5 mM CaCl2, pH 8.1 and 100 μL 10 mM N-α-p-Tosyl-L-Arginine methyl ester (TAME) were mixed and incubated at room temperature for 10′. 5 μL Trypsin (1 mg/ml) were added and the absorption at 247 nm was recorded for 2′, every 10″. Unit definition: One unit hydrolyzes 1 μmol of TAME per min at pH 8.2 and 25° C. Extinction coefficient 0.18 cm^2/μmol at 247 nm. 1 TAME unit=19.2 USP units.

Substance: Chymotrypsin
- specific activity [1]: 800 USP/mg

Substance: Elastase
- specific activity (Elastase activity assay): 5 U/mg

Substance: Pepsin
- specific activity [2]: 4000 U/mg

Substance: QQxSQPQxPQQQQxPQQPQQF [Glu-5]
- Response to TG2-treated gluten peptides (stimulatory index) [3]: + (Stimulatory index (SI; T + APC + TG2-treated peptide divided by T + APC) of 3-10)
- Response to TG2-treated gluten peptides (stimulatory index) [4]: −
- Response to TG2-treated gluten peptides (stimulatory index) [5]: −
- Response to TG2-treated gluten peptides (stimulatory index) [6]: −
- Response to TG2-treated gluten peptides (stimulatory index) [7]: −
- Response to TG2-treated gluten peptides (stimulatory index) [8]: −
- Response to TG2-treated gluten peptides (stimulatory index) [9]: −
- Response to TG2-treated gluten peptides (stimulatory index) [10]: −
- Response to TG2-treated gluten peptides (stimulatory index) [11]: −
- Response to TG2-treated gluten peptides (stimulatory index) [12]: −
- Response to TG2-treated gluten peptides (stimulatory index) [13]: −
- Response to TG2-treated gluten peptides (stimulatory index) [14]: −
- Response to TG2-treated gluten peptides (stimulatory index) [15]: + (Stimulatory index (SI; T + APC + TG2-treated peptide divided by T + APC) of 3-10)
- Response to TG2-treated gluten peptides (stimulatory index) [16]: −

Substance: Trypsin
- specific activity (Trypsin activity assay): 2000 USP/mg
